Results: patent US12297206B2, “Method for synthesizing furoimidazopyridine compound, polymorphic substance and polymorphic substance of salt” (HANGZHOU HIGHLIGHTLL PHARMACEUTICAL CO., LTD, priority 2019, dated 2025)
≈ marks a conversion by molar mass, not a printed value. Read-outs that look alike come from different tables or passages of the source.

Columns and labels:
[1] = Stability test 1: short-term solid state stability (high temperature and accelerated conditions); format: physicochemical; details: for Stability study: crystal form: 2 weeks (XRPD, DSC); for Appearance in solid state stability test: within 2 weeks, 60° C. and 40° C./75% RH
[2] = as above; format: physicochemical
Description: For the open samples, the bottle cap was removed and the bottle neck was coverred with an aluminium-foil paper stabbed with pinholes to avoid cross contamination; for the closed samples, the bottled were coverred and sealed tightly. Samples were taken at weeks 1 and 2, respectively, the samples were diluted with a diluent (methanol/water (1/1) (v/v)), the liquid phase was injected according to the chromatographic conditions in Table 22 and the sample purities were determined.
The sample purities were calculated with an area normalization method.

physchem = details: 37 °C, thermodynamic from solid
Description: The samples were observed 5 minutes later, a quantity of sample or medium was supplemented to obtain mild suspension, and sampling was conduct at 30 minutes, 2 hour, 4 hours and 24 hours, respectively. The samples were centrifuged for 10 minutes at 12000 rpm to obtain the supernatant, the supernatant was diluted appropriately and was subjected to high performance liquid chromatography.
The sample concentration was calculated with an external standard method.

[3] = Dynamic vapour sorption (DVS) moisture absorption; format: physicochemical
[4] = good solvents tetrahydrofuran, ethanol, isopropanol, methanol, acetone
From the text: If no solid was precipitated, the system was stirred with the bottle opened until solid was precipitated.

[5] = dissolved at about 50° C., slowly cooled at 6° C./h
Description: The temperature was maintained for 15 minutes, the solution was filterred with a 0.45 μm membrane when hot and transferred to new sample bottles, slowly cooled to room temperature at 6° C./h overnight, the sample bottles were placed in a refrigerator (2-8° C.), the solvent systems wherein solid precipitated were centrifuged and the solid was collected, the solvent was volatilized at room temperature (20-25° C.) to dryness; the solvent systems wherein no solid precipitated were placed in a −20° C. refrigerator until a large amount of solids precipitated.

[6] = evaporated at room temperature
[7] = room temperature and 50° C., days 3, 7 and 14
Description: The sample bottles (wrapped with a tin foil paper to protect from light) in a room temperature system were placed on Labquaker rotator for rotating 360°; the samples in a high temperature system were placed in a 50° C. thermostatic shaking incubator and were slurried, part of the suspension samples were taken on days 3, 7 and 14, respectively and were centrifuged, solid residue was collected, the solvents were volatilized at room temperature (20-25° C.) to dryness, the solid was collected.

[8] = dissolved at about 50° C., transferred to −20° C.
Description: The temperature was maintained for 15 minutes, the solution was filterred with a 0.45 μm membrane when hot and was transferred to new sample bottles, the bottled were immediately transferred to a −20° C. refrigerator overnight, the solvent systems wherein solid was precipitated were centrifuged and the solid was collected, the solvent was volatilized at room temperature (20-25° C.) to dryness; the solvent systems wherein no solid was precipitated were placed to a −20° C. refrigerator until a large amount of solids precipitated.

JAK1 = JAK1 (Homo sapiens, UniProt P23458); details: as reported for WO2018067422A1; cited from earlier work
TYK2 = target: T1, TYK2 (Homo sapiens, UniProt P29597); assay: TYK2 biochemical test (33P-ATP filter binding kinase assay, Reaction Biology Corp); details: kinase reaction 2 hours at room temperature
T1 construct: purchased Reaction Biology Corp, Malvern, PA (contract assay service)
Description: A suitable amount of a compound of formula I was weighed for TYK2 biochemical test.
The test was conducted by Reaction Biology Corp, Malvern, PA (Anastassiadis et al. Nat Biotechnol. 2011; 29(11):1039-45). The steps are briefly described as follows.
Basic reaction buffer: 20 mM Hepes (pH 7.5), 10 mM MgCl2, 1 mM EGTA, 0.02% Brij35, 0.02 mg/ml BSA, 0.1 mM Na3VO4, 2 mM DTT and 1% DMSO. The required cofactors were added to each kinase reaction.
1. Preparing the designated substrate in the newly prepared basic reaction buffer;
2. Transferring the required cofactor to the above matrix solution;
3. Transferring the designated kinase to the substrate solution and mixing well slightly;
4. Transferring a compound of formula I in DMSO to a kinase reaction mixture with Acoustic technique (Echo550; nanoliter range), culturing for 20 minutes at room temperature;
5. Introducing ^33P-ATP (specific activity: 10 μCi/μl) to the reaction mixture to trigger a reaction;
6. Culturing at room temperature and conducting a kinase reaction for 2 hours;
7. Plotting the reaction on P81 ion exchange paper;
8. Testing the kinase activity with a filter binding assay.

[9] = test system: thrombopoietin-induced STAT3 phosphorylation; details: as reported for WO2018067422A1; cited from earlier work
[10] = test system: IL-6-induced STAT3 phosphorylation; details: as reported for WO2018067422A1; cited from earlier work
[11] = fasted-state simulated intestinal fluid (FaSSIF), fassif
[12] = fed-state simulated intestinal fluid (FeSSIF), fessif
[13] = simulated gastric fluid (SGF), simulated gastric fluid

T1 sequence (P29597 whole entry): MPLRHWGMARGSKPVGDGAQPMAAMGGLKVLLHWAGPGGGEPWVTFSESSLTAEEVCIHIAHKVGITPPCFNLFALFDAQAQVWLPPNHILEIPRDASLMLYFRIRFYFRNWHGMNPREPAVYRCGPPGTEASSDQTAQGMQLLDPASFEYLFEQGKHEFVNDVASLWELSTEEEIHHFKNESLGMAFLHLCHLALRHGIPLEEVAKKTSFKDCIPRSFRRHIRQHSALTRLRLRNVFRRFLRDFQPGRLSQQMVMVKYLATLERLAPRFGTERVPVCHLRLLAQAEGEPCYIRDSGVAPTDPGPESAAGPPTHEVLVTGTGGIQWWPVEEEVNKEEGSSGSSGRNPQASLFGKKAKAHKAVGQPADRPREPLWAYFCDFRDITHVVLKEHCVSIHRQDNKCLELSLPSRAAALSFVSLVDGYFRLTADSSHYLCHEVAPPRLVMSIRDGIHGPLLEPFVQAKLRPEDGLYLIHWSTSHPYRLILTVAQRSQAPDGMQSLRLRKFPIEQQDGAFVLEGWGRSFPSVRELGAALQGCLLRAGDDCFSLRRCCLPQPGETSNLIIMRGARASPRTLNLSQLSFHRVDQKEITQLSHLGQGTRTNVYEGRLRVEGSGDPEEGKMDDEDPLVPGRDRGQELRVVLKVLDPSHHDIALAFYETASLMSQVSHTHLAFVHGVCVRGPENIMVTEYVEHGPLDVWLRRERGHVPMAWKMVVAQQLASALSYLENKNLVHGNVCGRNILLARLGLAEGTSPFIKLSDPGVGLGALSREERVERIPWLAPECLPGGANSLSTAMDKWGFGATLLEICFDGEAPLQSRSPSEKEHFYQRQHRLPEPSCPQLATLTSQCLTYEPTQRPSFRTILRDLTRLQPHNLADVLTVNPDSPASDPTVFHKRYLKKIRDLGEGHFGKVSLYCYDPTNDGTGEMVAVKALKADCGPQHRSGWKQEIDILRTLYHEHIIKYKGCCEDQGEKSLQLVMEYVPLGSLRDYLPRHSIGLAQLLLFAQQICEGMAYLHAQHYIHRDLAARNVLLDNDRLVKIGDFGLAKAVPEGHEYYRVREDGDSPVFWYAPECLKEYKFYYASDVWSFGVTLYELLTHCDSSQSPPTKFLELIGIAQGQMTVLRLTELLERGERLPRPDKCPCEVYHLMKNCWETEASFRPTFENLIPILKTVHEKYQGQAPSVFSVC
JAK1, sequence (P23458 whole entry, species assumed): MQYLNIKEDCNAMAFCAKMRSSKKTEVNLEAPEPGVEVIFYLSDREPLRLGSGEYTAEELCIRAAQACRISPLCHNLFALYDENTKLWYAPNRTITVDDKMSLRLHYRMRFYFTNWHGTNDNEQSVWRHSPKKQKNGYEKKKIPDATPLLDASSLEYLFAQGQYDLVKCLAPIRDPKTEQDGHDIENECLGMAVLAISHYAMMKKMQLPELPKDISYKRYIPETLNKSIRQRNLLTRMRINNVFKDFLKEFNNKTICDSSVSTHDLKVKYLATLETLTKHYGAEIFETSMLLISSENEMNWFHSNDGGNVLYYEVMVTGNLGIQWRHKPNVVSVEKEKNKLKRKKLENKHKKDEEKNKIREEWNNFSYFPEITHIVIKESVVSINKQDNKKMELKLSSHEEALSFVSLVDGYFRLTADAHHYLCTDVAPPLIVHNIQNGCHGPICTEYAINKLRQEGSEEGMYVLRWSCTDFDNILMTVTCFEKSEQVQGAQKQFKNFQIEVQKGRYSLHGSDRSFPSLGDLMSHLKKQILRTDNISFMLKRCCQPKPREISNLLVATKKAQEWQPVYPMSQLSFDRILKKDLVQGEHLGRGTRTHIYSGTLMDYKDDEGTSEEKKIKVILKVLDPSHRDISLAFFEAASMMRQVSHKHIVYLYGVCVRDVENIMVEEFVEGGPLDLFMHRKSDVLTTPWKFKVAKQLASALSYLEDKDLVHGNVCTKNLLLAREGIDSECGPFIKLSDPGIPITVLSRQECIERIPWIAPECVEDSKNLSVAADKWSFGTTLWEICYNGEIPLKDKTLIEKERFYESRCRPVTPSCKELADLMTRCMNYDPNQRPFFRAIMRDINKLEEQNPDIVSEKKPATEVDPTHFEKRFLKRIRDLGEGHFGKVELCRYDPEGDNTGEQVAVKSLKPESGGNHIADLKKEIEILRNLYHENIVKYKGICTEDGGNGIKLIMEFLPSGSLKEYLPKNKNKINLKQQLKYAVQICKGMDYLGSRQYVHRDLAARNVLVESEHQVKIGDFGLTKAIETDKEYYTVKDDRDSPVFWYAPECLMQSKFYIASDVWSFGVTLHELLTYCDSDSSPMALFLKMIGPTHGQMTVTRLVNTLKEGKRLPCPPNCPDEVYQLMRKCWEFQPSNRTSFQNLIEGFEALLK

Cc1nc2cnc3ccoc3c2n1[C@H]1CC[C@H](CC#N)OC1
Stability study: crystal form ([1]; 40° C./75% RH, open): Change | Stability study: crystal form ([1]; 60° C., sealed): Change | Appearance in solid state stability test [1]: didn't change | Stability study (purity) ([2]; 0 day): 99.80 Area % | Stability study (purity) ([2]; 40° C./75% RH, open, 1 week): 99.82 Area % | Stability study (purity) ([2]; 40° C./75% RH, open, 2 weeks): 99.82 Area % | Stability study (purity) ([2]; 60° C., sealed, 1 week): 99.81 Area % | Stability study (purity) ([2]; 60° C., sealed, 2 weeks): 99.83 Area % | solubility at 30 min (physchem; [11]): 2590 µg/mL (≈ 8.74 mM) | solubility at 2 h (physchem; [11]): 1860 µg/mL (≈ 6.28 mM) | solubility at 4 h (physchem; [11]): 1810 µg/mL (≈ 6.11 mM) | solubility at 24 h (physchem; [11]): 1560 µg/mL (≈ 5.26 mM) | solubility at 30 min (physchem; [12]): 2910 µg/mL (≈ 9.82 mM) | solubility at 2 h (physchem; [12]): 2200 µg/mL (≈ 7.42 mM) | solubility at 4 h (physchem; [12]): 2610 µg/mL (≈ 8.81 mM) | solubility at 24 h (physchem; [12]): 3290 µg/mL (≈ 11.1 mM) | solubility at 30 min (physchem; [13]): 16400 µg/mL (≈ 55.3 mM) | solubility at 2 h (physchem; [13]): 17000 µg/mL (≈ 57.2 mM) | solubility at 4 h (physchem; [13]): 15200 µg/mL (≈ 51.2 mM) | solubility at 24 h (physchem; [13]): 16400 µg/mL (≈ 55.4 mM) | solubility at 30 min (physchem; water): 1350 µg/mL (≈ 4.56 mM) | solubility at 2 h (physchem; water): 1730 µg/mL (≈ 5.84 mM) | solubility at 4 h (physchem; water): 1490 µg/mL (≈ 5.03 mM) | solubility at 24 h (physchem; water): 1430 µg/mL (≈ 4.83 mM) | Crystal form after moisture absorption (XRPD before and after the DVS test) [3]: the crystal form changes | Weight gain by moisture absorption (DVS) ([3]; from 0% RH to 95% RH, 25° C.): 13.86%

Cc1nc2cnc3ccoc3c2n1C1CCC(CC#N)OC1.O=P(O)(O)O (stereo not shown)
Stability study: crystal form ([1]; 40° C./75% RH, open): Unchange | Stability study: crystal form ([1]; 60° C., sealed): Unchange | Appearance in solid state stability test [1]: didn't change | Stability study (purity) ([2]; 0 day): 99.34 Area % | Stability study (purity) ([2]; 40° C./75% RH, open, 1 week): 99.33 Area % | Stability study (purity) ([2]; 40° C./75% RH, open, 2 weeks): 99.35 Area % | Stability study (purity) ([2]; 60° C., sealed, 1 week): 99.32 Area % | Stability study (purity) ([2]; 60° C., sealed, 2 weeks): 99.16 Area % | Crystal form after moisture absorption (XRPD before and after the DVS test) [3]: doesn't change | Weight gain by moisture absorption (DVS) ([3]; at 70% RH): 1.95% | Weight gain by moisture absorption (DVS) ([3]; at a humidity of 85% RH): 0.72% | Weight gain by moisture absorption (DVS) ([3]; from 0% RH to 95% RH, 25° C.): 6.5%

Cc1nc2cnc3ccoc3c2n1C1CCC(CC#N)OC1.Cc1nc2cnc3ccoc3c2n1C1CCC(CC#N)OC1.O=C(O)C(O)C(O)C(=O)O (stereo not shown)
Product crystal form ([4]; Anti-solvent Ethyl acetate): Crystal form O | Product crystal form ([4]; Anti-solvent Methyl tert-butyl ether): Crystal form O | Product crystal form ([4]; Anti-solvent N-heptane): Crystal form O | Product crystal form ([4]; Anti-solvent Toluene): Crystal form O | Crystal form of precipitated solid ([5]; Ethanol): Crystal form O | Crystal form of precipitated solid ([5]; Isopropanol): Crystal form O | Crystal form of precipitated solid ([6]; Acetone): Crystal form O | Crystal form of precipitated solid ([6]; Ethanol): Crystal form O | Crystal form of precipitated solid ([6]; Isopropanol): Crystal form O | Crystal form of precipitated solid ([6]; Methanol): Crystal form O | Crystal form of precipitated solid ([6]; Tetrahydrofuran): Crystal form O | Stability study: crystal form ([1]; 40° C./75% RH, open): Unchange | Stability study: crystal form ([1]; 60° C., sealed): Unchange | Appearance in solid state stability test [1]: didn't change | Stability study (purity) ([2]; 0 day): 99.22 Area % | Stability study (purity) ([2]; 40° C./75% RH, open, 1 week): 99.31 Area % | Stability study (purity) ([2]; 40° C./75% RH, open, 2 weeks): 99.36 Area % | Stability study (purity) ([2]; 60° C., sealed, 1 week): 99.34 Area % | Stability study (purity) ([2]; 60° C., sealed, 2 weeks): 99.36 Area % | Crystal form after slurrying ([7]; Acetone): Crystal form O | Crystal form after slurrying ([7]; Ethanol): Crystal form O | Crystal form after slurrying ([7]; Ethyl acetate): Crystal form O | Crystal form after slurrying ([7]; Isopropanol): Crystal form O | Crystal form after slurrying ([7]; Methanol): Crystal form O | Crystal form after slurrying ([7]; Methyl tert-butyl ether): Crystal form O | Crystal form after slurrying ([7]; N-heptane): Crystal form O | Crystal form after slurrying ([7]; Tetrahydrofuran): Crystal form O | Crystal form after slurrying ([7]; Toluene): Crystal form O | Crystal form of precipitated solid ([8]; Ethanol): Crystal form O | Crystal form of precipitated solid ([8]; Isopropanol): Crystal form O | Crystal form of precipitated solid ([8]; Methanol): Crystal form O | Crystal form after moisture absorption (XRPD before and after the DVS test) [3]: doesn't change | Weight gain by moisture absorption (DVS) ([3]; at a humidity of 80% RH): 1.80% | Weight gain by moisture absorption (DVS) ([3]; from 0% RH to 95% RH, 25° C.): 6.85%

Br.Cc1nc2cnc3ccoc3c2n1C1CCC(CC#N)OC1 (stereo not shown)
Crystal form after moisture absorption (XRPD before and after the DVS test) [3]: changed | Weight gain by moisture absorption (DVS) ([3]; from 0% RH to 95% RH, 25° C.): 11.84%

Cc1nc2cnc3ccoc3c2n1C1CCC(CC#N)OC1.O=S(=O)(O)c1ccccc1 (stereo not shown)
Crystal form after moisture absorption (XRPD before and after the DVS test) [3]: doesn't change | Weight gain by moisture absorption (DVS) ([3]; at 70% RH): 0.97% | Weight gain by moisture absorption (DVS) ([3]; at a humidity of 85% RH): 0.54% | Weight gain by moisture absorption (DVS) ([3]; from 0% RH to 95% RH, 25° C.): 4.6%

Cc1nc2cnc3ccoc3c2n1[C@H]1CC[C@H](CC#N)OC1 [compound of formula I, 2-[(2R,5S)-5-[2-methylfuro[3,2-b]imidazo[4,5-d]pyridin-1-yl]tetrahydropyran-2-yl] acetonitrile]
JAK1 inhibition (JAK1): potent and selective JAK1 inhibitor | IC50 (TYK2): < 0.01 µM | Inhibition of thrombopoietin-induced STAT3 phosphorylation [9]: does not show selective inhibition | Inhibition of IL-6-induced STAT3 phosphorylation [10]: selective inhibition
